Assay results: PubChem BioAssay (NCI)
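Method: 48-hour compound exposure of cells in 96-well plates, five concentrations, linear interpolation of endpoints. GI50 = concentration required for 50% inhibition of growth. TGI: concentration producing complete growth inhibition.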

Experiments:
Test in all cases: growth of human tumour cells (NCI), 48 h
786-0 renal = test system: 786-0 renal
A498 renal = test system: A498 renal
A549 NSCLC = test system: A549 NSCLC
ACHN renal = test system: ACHN renal
BT-549 breast = test system: BT-549 breast
CAKI-1 renal = test system: CAKI-1 renal
CCRF-CEM leukemia = test system: CCRF-CEM leukemia
COLO 205 colon = test system: COLO 205 colon
DU-145 prostate = test system: DU-145 prostate
EKVX NSCLC = test system: EKVX NSCLC
HCC-2998 colon = test system: HCC-2998 colon
HCT-116 colon = test system: HCT-116 colon
HCT-15 colon = test system: HCT-15 colon
HL-60(TB) leukemia = test system: HL-60(TB) leukemia
HOP-62 NSCLC = test system: HOP-62 NSCLC
HOP-92 NSCLC = test system: HOP-92 NSCLC
HS 578T breast = test system: HS 578T breast
HT29 colon = test system: HT29 colon
IGROV1 ovarian = test system: IGROV1 ovarian
K-562 leukemia = test system: K-562 leukemia
KM12 colon = test system: KM12 colon
LOX IMVI melanoma = test system: LOX IMVI melanoma
M14 melanoma = test system: M14 melanoma
MALME-3M melanoma = test system: MALME-3M melanoma
MCF7 breast = test system: MCF7 breast
MDA-MB-231 breast = test system: MDA-MB-231 breast
MDA-MB-435 = test system: MDA-MB-435
MOLT-4 leukemia = test system: MOLT-4 leukemia
NCI-H226 lung = test system: NCI-H226 lung
NCI-H23 lung = test system: NCI-H23 lung
NCI-H460 lung = test system: NCI-H460 lung
NCI-H522 lung = test system: NCI-H522 lung
NCI/ADR-RES ovarian = test system: NCI/ADR-RES ovarian
OVCAR-3 ovarian = test system: OVCAR-3 ovarian
OVCAR-4 ovarian = test system: OVCAR-4 ovarian
OVCAR-5 ovarian = test system: OVCAR-5 ovarian
OVCAR-8 ovarian = test system: OVCAR-8 ovarian
PC-3 prostate = test system: PC-3 prostate
RPMI-8226 leukemia = test system: RPMI-8226 leukemia
RXF 393 renal = test system: RXF 393 renal
SF-268 CNS = test system: SF-268 CNS
SF-295 CNS = test system: SF-295 CNS
SF-539 CNS = test system: SF-539 CNS
SK-MEL-2 melanoma = test system: SK-MEL-2 melanoma
SK-MEL-28 melanoma = test system: SK-MEL-28 melanoma
SK-MEL-5 melanoma = test system: SK-MEL-5 melanoma
SK-OV-3 ovarian = test system: SK-OV-3 ovarian
SN12C renal = test system: SN12C renal
SNB-19 CNS = test system: SNB-19 CNS
SNB-75 CNS = test system: SNB-75 CNS
SR leukemia = test system: SR leukemia
SW-620 colon = test system: SW-620 colon
T-47D breast = test system: T-47D breast
TK-10 renal = test system: TK-10 renal
U251 CNS = test system: U251 CNS
UACC-257 melanoma = test system: UACC-257 melanoma
UACC-62 melanoma = test system: UACC-62 melanoma
UO-31 renal = test system: UO-31 renal

For `CCN(CC)c1ccc(/C=N/NC(=O)c2ccc(S(N)(=O)=O)cc2)c(O)c1`, the GI50 (786-0 renal) was 370 nM, the TGI (786-0 renal) was 8870 nM and the GI50 (A498 renal) was 982 nM. For the same molecule, the TGI (A498 renal) was 32700 nM, the GI50 (A549 NSCLC) was 1440 nM and the TGI (A549 NSCLC) was over 100000 nM. The GI50 (ACHN renal) was 465 nM, the TGI (ACHN renal) was over 100000 nM and the GI50 (BT-549 breast) was 480 nM. For the same molecule, the TGI (BT-549 breast) was 7730 nM, the GI50 (CAKI-1 renal) was 393 nM and the TGI (CAKI-1 renal) was 30900 nM. For the same molecule, the GI50 (CCRF-CEM leukemia) was 105 nM, the TGI (CCRF-CEM leukemia) was over 100000 nM and the GI50 (COLO 205 colon) was 296 nM. It also gave a TGI (COLO 205 colon) of 27000 nM, a GI50 (DU-145 prostate) of 540 nM and a TGI (DU-145 prostate) of over 79600 nM. The GI50 (EKVX NSCLC) was 397 nM, the TGI (EKVX NSCLC) was over 100000 nM and the GI50 (HCC-2998 colon) was 419 nM. It also gave a TGI (HCC-2998 colon) of over 80100 nM, a GI50 (HCT-116 colon) of 205 nM and a TGI (HCT-116 colon) of 56700 nM. The GI50 (HCT-15 colon) was 318 nM, the TGI (HCT-15 colon) was over 100000 nM and the GI50 (HL-60(TB) leukemia) was 206 nM. For the same molecule, the GI50 (HOP-62 NSCLC) was 226 nM, the TGI (HOP-62 NSCLC) was 7180 nM and the GI50 (HOP-92 NSCLC) was 216 nM. For the same molecule, the TGI (HOP-92 NSCLC) was 13100 nM, the GI50 (HS 578T breast) was 2250 nM and the TGI (HS 578T breast) was over 68000 nM. It also gave a GI50 (HT29 colon) of 485 nM, a TGI (HT29 colon) of over 54900 nM and a GI50 (IGROV1 ovarian) of 437 nM. For the same molecule, the TGI (IGROV1 ovarian) was over 100000 nM, the GI50 (K-562 leukemia) was 408 nM and the TGI (K-562 leukemia) was over 100000 nM. For the same molecule, the GI50 (KM12 colon) was 579 nM, the TGI (KM12 colon) was over 100000 nM and the GI50 (LOX IMVI melanoma) was 187 nM. The TGI (LOX IMVI melanoma) was 3610 nM, the GI50 (M14 melanoma) was 351 nM and the TGI (M14 melanoma) was 7140 nM. For the same molecule, the GI50 (MALME-3M melanoma) was 482 nM, the TGI (MALME-3M melanoma) was 9430 nM and the GI50 (MCF7 breast) was 399 nM. The TGI (MCF7 breast) was over 100000 nM, the GI50 (MDA-MB-231 breast) was 389 nM and the TGI (MDA-MB-231 breast) was 28600 nM. The GI50 (MDA-MB-435) was 659 nM, the TGI (MDA-MB-435) was over 100000 nM and the GI50 (MOLT-4 leukemia) was 322 nM. For the same molecule, the TGI (MOLT-4 leukemia) was over 100000 nM, the GI50 (NCI-H226 lung) was 821 nM and the TGI (NCI-H226 lung) was over 29600 nM. The GI50 (NCI-H23 lung) was 1110 nM, the TGI (NCI-H23 lung) was over 100000 nM and the GI50 (NCI-H460 lung) was 467 nM. It also gave a TGI (NCI-H460 lung) of 6730 nM, a GI50 (NCI-H522 lung) of 310 nM and a TGI (NCI-H522 lung) of over 45300 nM. For the same molecule, the GI50 (NCI/ADR-RES ovarian) was 1390 nM, the TGI (NCI/ADR-RES ovarian) was over 100000 nM and the GI50 (OVCAR-3 ovarian) was 137 nM. It also gave a TGI (OVCAR-3 ovarian) of over 100000 nM, a GI50 (OVCAR-4 ovarian) of 304 nM and a TGI (OVCAR-4 ovarian) of over 85400 nM. The GI50 (OVCAR-5 ovarian) was 1640 nM, the TGI (OVCAR-5 ovarian) was over 84500 nM and the GI50 (OVCAR-8 ovarian) was 279 nM. The TGI (OVCAR-8 ovarian) was over 49600 nM, the GI50 (PC-3 prostate) was 345 nM and the TGI (PC-3 prostate) was over 100000 nM. It also gave a GI50 (RPMI-8226 leukemia) of 3640 nM, a TGI (RPMI-8226 leukemia) of over 100000 nM and a GI50 (RXF 393 renal) of 541 nM. It also gave a TGI (RXF 393 renal) of 8710 nM, a GI50 (SF-268 CNS) of 220 nM and a TGI (SF-268 CNS) of 17200 nM. The GI50 (SF-295 CNS) was 528 nM, the TGI (SF-295 CNS) was 20500 nM and the GI50 (SF-539 CNS) was 390 nM. For the same molecule, the TGI (SF-539 CNS) was 7870 nM, the GI50 (SK-MEL-2 melanoma) was 2250 nM and the TGI (SK-MEL-2 melanoma) was 53100 nM. The GI50 (SK-MEL-28 melanoma) was 352 nM, the TGI (SK-MEL-28 melanoma) was over 64500 nM and the GI50 (SK-MEL-5 melanoma) was 537 nM. It also gave a TGI (SK-MEL-5 melanoma) of over 20300 nM, a GI50 (SK-OV-3 ovarian) of 394 nM and a TGI (SK-OV-3 ovarian) of 18400 nM. The GI50 (SN12C renal) was 638 nM, the TGI (SN12C renal) was over 64800 nM and the GI50 (SNB-19 CNS) was 669 nM. The TGI (SNB-19 CNS) was 29900 nM, the GI50 (SNB-75 CNS) was 351 nM and the GI50 (SR leukemia) was 63.1 nM. The GI50 (SW-620 colon) was 429 nM, the TGI (SW-620 colon) was over 100000 nM and the GI50 (T-47D breast) was 2030 nM. It also gave a TGI (T-47D breast) of over 100000 nM, a GI50 (TK-10 renal) of 373 nM and a TGI (TK-10 renal) of 40100 nM. For the same molecule, the GI50 (U251 CNS) was 159 nM, the TGI (U251 CNS) was 16500 nM and the GI50 (UACC-257 melanoma) was 404 nM. For the same molecule, the TGI (UACC-257 melanoma) was 5330 nM, the GI50 (UACC-62 melanoma) was 346 nM and the TGI (UACC-62 melanoma) was 5140 nM. It also gave a GI50 (UO-31 renal) of 399 nM and a TGI (UO-31 renal) of over 100000 nM.
